Measured values reported in patent publication US20250326749A1, “COMPOUNDS, COMPOSITIONS, AND METHODS OF USING THEREOF” (Sionna Therapeutics Inc., priority 2022, published 2025).

molecular target: T1, ΔF508-CFTR (Homo sapiens, UniProt P13569, DEL508-508); assay: ΔF508-CFTR-HRP trafficking assay (cell surface expression of ΔF508-CFTR); format: cell-based; conditions: CFSMEo- cells transiently transfected with ΔF508-CFTR-HRP; test agent 3 μM, 48 h; HRP chemiluminescence
T1 construct: expressed in transfected cells; host or cells: CFSMEo- (human CF submucosal gland epithelial cells, ΔF508/Q2X), transiently transfected by nucleofection
Source text: Test agents were screened for their effect on cell surface expression of ΔF508-CFTR using the ΔF508-CFTR-HRP trafficking assay. For this assay, a ΔF508-CFTR expression construct was designed with an in-frame insertion of a horseradish peroxidase (HRP) tag into the 4th extracellular loop of CFTR. The HRP tag would be presented extracellularly, in cells transiently transfected with the ΔF508-CFTR-HRP construct, following correction of the ΔF508-CFTR trafficking defect. The quantity of ΔF508-CFTR-HRP expressed on the plasma membrane could therefore be determined by measuring an HRP-dependent signal after the application of a cell-impermeable HRP substrate.
In brief, CF submucosal gland epithelial cells (CFSMEo-), derived from the airways of a CF patient (ΔF508/Q2X) and provided by Dr. Dieter Gruenert, University of California-San Francisco, were cultured at 37° C. with 5% CO2 in minimum essential medium (MEM) with Earle's salt and nonessential amino acids, supplemented with 10% (volume per volume [v/v]) fetal bovine serum, 2 mM L-glutamine and 1× (v/v) penicillin/streptomycin and grown in tissue culture-treated flasks coated with an extracellular matrix (ECM) cocktail consisting of 10 μg/mL human fibronectin, 30 μg/mL bovine collagen type I, and 100 μg/mL bovine serum albumin in LHC basal medium. These CFSMEo^− cells were transiently transfected with 4 μg of the ΔF508-CFTR-HRP expression construct using the Lonza 4D-Nucleofector Core unit (Lonza, Catalogue No. AAF-1002B) with the X unit (Lonza, Catalogue No. AAF-1002X) and SF Cell Line 4D-Nucleofector X Kit L (Lonza, Catalogue No. V4XC-2024) according to the manufacturer's instructions and plated at 1.2×10^4 cells/well onto collagen-coated, 96-well plates (Corning Inc.). Twenty-four h post-transfection, cells were treated with test agents, solubilized in DMSO at a concentration of 3 μM in replicates of 3, and allowed to incubate for 48 h. To detect HRP expression, cell culture media was removed, cells were washed with PBS and 100 μL of Luminata Forte HRP chemiluminescent substrate (EMD Millipore, Burlington, MA) was added to each well. Following a 5-minute incubation, chemiluminescence was measured in relative luminescent units (RLUs) using an EnVision plate reader (Perkin Elmer, Waltham, MA).
The ΔF508-CFTR-HRP trafficking data was normalized to the vehicle treated control (0.3% DMSO), followed by calculation of the mean, standard deviation, and standard error. If the test agent increased cell surface expression of ΔF508-CFTR-HRP relative to the vehicle-treated control, then that test agent was considered a ΔF508-CFTR corrector. Based on the description above, the biological activity of the examples in this disclosure is collected in Table 2.

T1 sequence (P13569 with tags, fused parts or gaps DEL508-508): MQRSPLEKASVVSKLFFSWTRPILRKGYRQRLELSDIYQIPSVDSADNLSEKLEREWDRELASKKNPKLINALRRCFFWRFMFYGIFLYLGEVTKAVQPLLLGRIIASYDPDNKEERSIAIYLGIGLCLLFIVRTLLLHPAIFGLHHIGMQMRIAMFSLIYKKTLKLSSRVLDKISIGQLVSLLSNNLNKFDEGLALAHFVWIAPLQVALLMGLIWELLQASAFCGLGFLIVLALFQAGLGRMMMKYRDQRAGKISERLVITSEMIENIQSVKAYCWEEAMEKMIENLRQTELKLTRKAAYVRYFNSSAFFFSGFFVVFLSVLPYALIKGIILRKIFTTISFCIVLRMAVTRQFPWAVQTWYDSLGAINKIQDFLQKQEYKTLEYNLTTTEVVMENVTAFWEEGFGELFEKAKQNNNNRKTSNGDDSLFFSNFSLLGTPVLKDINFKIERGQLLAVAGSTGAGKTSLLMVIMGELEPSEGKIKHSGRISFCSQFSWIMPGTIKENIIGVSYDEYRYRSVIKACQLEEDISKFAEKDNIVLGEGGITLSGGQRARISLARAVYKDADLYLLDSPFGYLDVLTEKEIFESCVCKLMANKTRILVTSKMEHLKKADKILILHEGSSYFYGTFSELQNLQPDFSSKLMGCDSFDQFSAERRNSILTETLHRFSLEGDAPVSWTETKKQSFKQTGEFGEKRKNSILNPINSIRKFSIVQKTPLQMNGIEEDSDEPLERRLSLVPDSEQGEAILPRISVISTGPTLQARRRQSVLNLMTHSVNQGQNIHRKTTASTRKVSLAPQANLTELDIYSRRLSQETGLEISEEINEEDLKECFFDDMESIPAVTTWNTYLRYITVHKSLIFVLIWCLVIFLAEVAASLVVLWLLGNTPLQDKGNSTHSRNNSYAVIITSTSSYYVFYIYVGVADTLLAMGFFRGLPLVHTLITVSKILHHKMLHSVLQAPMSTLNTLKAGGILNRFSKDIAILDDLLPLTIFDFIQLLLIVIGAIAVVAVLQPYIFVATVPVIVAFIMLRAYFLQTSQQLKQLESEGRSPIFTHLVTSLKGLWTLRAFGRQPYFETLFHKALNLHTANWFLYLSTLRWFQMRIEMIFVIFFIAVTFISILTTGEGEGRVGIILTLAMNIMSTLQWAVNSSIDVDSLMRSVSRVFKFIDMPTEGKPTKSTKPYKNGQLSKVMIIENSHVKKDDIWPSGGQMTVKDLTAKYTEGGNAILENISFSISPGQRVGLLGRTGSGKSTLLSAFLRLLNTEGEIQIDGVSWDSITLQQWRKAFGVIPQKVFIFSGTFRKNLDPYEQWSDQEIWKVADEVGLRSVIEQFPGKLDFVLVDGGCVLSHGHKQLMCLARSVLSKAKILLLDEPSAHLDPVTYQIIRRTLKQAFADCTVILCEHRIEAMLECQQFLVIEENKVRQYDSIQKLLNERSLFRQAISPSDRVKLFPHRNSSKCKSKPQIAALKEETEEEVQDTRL

| SMILES | RLUs: ΔF508-CFTR-HRP trafficking data normalized to the vehicle treated control (0.3% DMSO) |
| --- | --- |
| C[C@H](Nc1cc(-n2nc(C(F)(F)F)c3c2[C@H](OC24CC(C(=O)O)(C2)C4)CCC3)ccc1F)c1cc2c(cc1F)OC(F)(F)O2 (single isomer, unassigned) [96 (P2)] | C (RLU 0.0 μM-3.5 μM) |
| C[C@H](Nc1cccc(-n2nc(C(F)(F)F)c3c2[C@@H](OC24CC(C(=O)O)(C2)C4)CCC3)c1)c1cc2c(cc1F)OC(F)(F)O2 (single isomer, unassigned) [97 (P1)] | C (RLU 0.0 μM-3.5 μM) |
| C[C@H](Nc1cccc(-n2nc(C(F)(F)F)c3c2[C@H](OC24CC(C(=O)O)(C2)C4)CCC3)c1)c1cc2c(cc1F)OC(F)(F)O2 (single isomer, unassigned) [97 (P2)] | C (RLU 0.0 μM-3.5 μM) |
| C[C@H](Nc1ccc(F)c(-n2nc(C(F)(F)F)c3c2[C@@H](OC24CC(C(=O)O)(C2)C4)CCC3)c1)c1cc2c(cc1F)OC(F)(F)O2 (single isomer, unassigned) [98 (P1)] | C (RLU 0.0 μM-3.5 μM) |
| C[C@H](Nc1ccc(F)c(-n2nc(C(F)(F)F)c3c2[C@H](OC24CC(C(=O)O)(C2)C4)CCC3)c1)c1cc2c(cc1F)OC(F)(F)O2 (single isomer, unassigned) [98 (P2)] | C (RLU 0.0 μM-3.5 μM) |
| C[C@H](Nc1ccc(F)c(-n2nc(C(F)(F)F)c3c2[C@@H](OC24CC(C(=O)O)(C2)C4)CCC3)c1)c1ccc2c(c1)OC(F)(F)O2 (single isomer, unassigned) [99 (P1)] | C (RLU 0.0 μM-3.5 μM) |
| C[C@H](Nc1ccc(F)c(-n2nc(C(F)(F)F)c3c2[C@H](OC24CC(C(=O)O)(C2)C4)CCC3)c1)c1ccc2c(c1)OC(F)(F)O2 (single isomer, unassigned) [99 (P2)] | C (RLU 0.0 μM-3.5 μM) |
| C[C@H](Nc1cccc(-n2nc(C(F)(F)F)c3c2[C@@H](OC24CC(C(=O)O)(C2)C4)CCC3)n1)c1ccc2c(c1)OC(F)(F)O2 (single isomer, unassigned) [100 (P1)] | A (RLU 5.0 μM-10 μM) |
| C[C@H](Nc1cccc(-n2nc(C(F)(F)F)c3c2[C@H](OC24CC(C(=O)O)(C2)C4)CCC3)n1)c1ccc2c(c1)OC(F)(F)O2 (single isomer, unassigned) [100 (P2)] | C (RLU 0.0 μM-3.5 μM) |
| C[C@H](Nc1nc(-n2nc(C(F)(F)F)c3c2[C@@H](OC24CC(C(=O)O)(C2)C4)CCC3)ccc1F)c1ccc2c(c1)OC(F)(F)O2 (single isomer, unassigned) [101 (P1)] | C (RLU 0.0 μM-3.5 μM) |
| C[C@H](Nc1nc(-n2nc(C(F)(F)F)c3c2[C@H](OC24CC(C(=O)O)(C2)C4)CCC3)ccc1F)c1ccc2c(c1)OC(F)(F)O2 (single isomer, unassigned) [101 (P2)] | C (RLU 0.0 μM-3.5 μM) |
| C[C@H](Nc1cc(-n2nc(C(F)(F)F)c3c2[C@@H](OC24CC(c5nc(=O)o[nH]5)(C2)C4)CCC3)ccc1F)c1ccc2c(c1)OC(F)(F)O2 (single isomer, unassigned) [102 (P1)] | C (RLU 0.0 μM-3.5 μM) |
| C[C@H](Nc1cc(-n2nc(C(F)(F)F)c3c2[C@H](OC24CC(c5nc(=O)o[nH]5)(C2)C4)CCC3)ccc1F)c1ccc2c(c1)OC(F)(F)O2 (single isomer, unassigned) [102 (P2)] | B (RLU 3.5 μM-5.0 μM) |
| C[C@H](Nc1cc(-n2nc(C(F)(F)F)c3c2[C@@H](OC24CC(c5nc(=O)o[nH]5)(C2)C4)CCC3)ccc1F)c1cc2c(cc1F)OC(F)(F)O2 (single isomer, unassigned) [103 (P1)] | B (RLU 3.5 μM-5.0 μM) |
| C[C@H](Nc1cc(-n2nc(C(F)(F)F)c3c2[C@H](OC24CC(c5nc(=O)o[nH]5)(C2)C4)CCC3)ccc1F)c1cc2c(cc1F)OC(F)(F)O2 (single isomer, unassigned) [103 (P2)] | C (RLU 0.0 μM-3.5 μM) |
| C[C@H](Oc1cc(-n2nc(C#N)c3c2[C@@H](OC24CC(C(=O)O)(C2)C4)CCC3)ccc1F)c1ccc2c(c1)OC(F)(F)O2 (single isomer, unassigned) [105 (P1)] | B (RLU 3.5 μM-5.0 μM) |
| C[C@H](Oc1cc(-n2nc(C#N)c3c2[C@H](OC24CC(C(=O)O)(C2)C4)CCC3)ccc1F)c1ccc2c(c1)OC(F)(F)O2 (single isomer, unassigned) [105 (P2)] | B (RLU 3.5 μM-5.0 μM) |
| C[C@H](Nc1cc(-n2nc(C#N)c3c2[C@@H](OC24CC(C(=O)O)(C2)C4)CCC3)ccc1F)c1ccc2c(c1)OC(F)(F)O2 (single isomer, unassigned) [106 (P1)] | B (RLU 3.5 μM-5.0 μM) |
| C[C@H](Nc1cc(-n2nc(C#N)c3c2[C@H](OC24CC(C(=O)O)(C2)C4)CCC3)ccc1F)c1ccc2c(c1)OC(F)(F)O2 (single isomer, unassigned) [106 (P2)] | C (RLU 0.0 μM-3.5 μM) |
| C[C@H](Nc1cc(-n2nc(C#N)c3c2[C@@H](OC24CC(C(=O)O)(C2)C4)CCC3)ncc1F)c1ccc2c(c1)OC(F)(F)O2 (single isomer, unassigned) [107 (P1)] | C (RLU 0.0 μM-3.5 μM) |
| C[C@H](Nc1cc(-n2nc(C#N)c3c2[C@H](OC24CC(C(=O)O)(C2)C4)CCC3)ncc1F)c1ccc2c(c1)OC(F)(F)O2 (single isomer, unassigned) [107 (P2)] | C (RLU 0.0 μM-3.5 μM) |
| C[C@H](Nc1nc(-n2nc(C#N)c3c2[C@@H](OC24CC(C(=O)O)(C2)C4)CCC3)ccc1F)c1ccc2c(c1)OC(F)(F)O2 (single isomer, unassigned) [108 (P1)] | C (RLU 0.0 μM-3.5 μM) |
| C[C@H](Nc1nc(-n2nc(C#N)c3c2[C@H](OC24CC(C(=O)O)(C2)C4)CCC3)ccc1F)c1ccc2c(c1)OC(F)(F)O2 (single isomer, unassigned) [108 (P2)] | C (RLU 0.0 μM-3.5 μM) |
| C[C@H](Oc1cc(-n2nc(C(F)(F)F)c3c2[C@@H](Oc2ccc(C(=O)O)cc2)CN(C)C3)ccn1)c1ccc2c(c1)OC(F)(F)O2 (single isomer, unassigned) [115 (P1)] | B (RLU 3.5 μM-5.0 μM) |
| C[C@H](Oc1cc(-n2nc(C(F)(F)F)c3c2[C@H](Oc2ccc(C(=O)O)cc2)CN(C)C3)ccn1)c1ccc2c(c1)OC(F)(F)O2 (single isomer, unassigned) [115 (P2)] | C (RLU 0.0 μM-3.5 μM) |
| C[C@H](Oc1cccc(-n2nc(C(F)(F)F)c3c2[C@@H](C(=O)N2CCC(C(=O)O)CC2)CCC3)c1)c1ccc2c(c1)OC(F)(F)O2 (single isomer, unassigned) [120 (P1)] | B (RLU 3.5 μM-5.0 μM) |
| C[C@H](Oc1cccc(-n2nc(C(F)(F)F)c3c2[C@H](C(=O)N2CCC(C(=O)O)CC2)CCC3)c1)c1ccc2c(c1)OC(F)(F)O2 (single isomer, unassigned) [120 (P2)] | C (RLU 0.0 μM-3.5 μM) |
| C[C@H](Oc1cncc(-n2nc(C(F)(F)F)c3c2[C@@H](C(=O)N2CCC(C(=O)O)CC2)CCC3)c1)c1ccc2c(c1)OC(F)(F)O2 (single isomer, unassigned) [122 (P1)] | C (RLU 0.0 μM-3.5 μM) |
| C[C@H](Oc1cncc(-n2nc(C(F)(F)F)c3c2[C@H](C(=O)N2CCC(C(=O)O)CC2)CCC3)c1)c1ccc2c(c1)OC(F)(F)O2 (single isomer, unassigned) [122 (P2)] | B (RLU 3.5 μM-5.0 μM) |
| C[C@H](Oc1cncc(-n2nc(C(F)(F)F)c3c2[C@@H](CN2CCC(C(=O)O)CC2)CCC3)c1)c1ccc2c(c1)OC(F)(F)O2 (single isomer, unassigned) [124 (P1)] | B (RLU 3.5 μM-5.0 μM) |
